How the values were obtained:
[1] = test system: lung cancer xenograft (LXFL H460); test: human tumour xenograft study, Experiment 2: docetaxel/roscovitine scheduling (LXFL H460); assay type: in vivo, nude mice (NMRI nu/nu); conditions: for T/C [%] day 28 / T/Copt [%] / dayopt. (day of T/Copt): single therapy: CYC202 300 mg/kg/d po bd days 0-4, 7-11, 14-18, TXT 20 mg/kg iv days 0, 14
[2] = toxicities (lethality, body weight change) in the LXFL H460 xenograft study; assay type: in vivo, nude mice (NMRI nu/nu); conditions: single therapy: CYC202 300 mg/kg/d po bd days 0-4, 7-11, 14-18, TXT 20 mg/kg iv days 0, 14; for Median BWC % (day 21): one week after last therapy of docetaxel
[3] = test system: MAXF 857 primary breast cancer xenograft; conditions: taxotere on day 2, roscovitine on days 0-3 and 7-9 after randomization, or the combination of the two treatments
[4] = test system: breast tumor cells (MDA-435); test: MTT assay, roscovitine exposure followed by docetaxel; conditions: single agent at 100% of its IC50 (roscovitine 15 ug/ml or Tax. […])

Row | Compound | Tumor growth delay in relation to the vehicle treated control ([1]; LXFL H460, combination Schedule 1, or docetaxel in single therapy) [days] | T/C [%] day 28 [1] [%] | T/Copt [%] [1] [%] | dayopt. (day of T/Copt) [1] [days] | T/C [%] day 28 ([1]; listed as TXT) [%] | Lethality n (day) [2] | Median BWC % (day 21) [2] | optimal T/C [3] [%] | % Response [4] [%] | T/C [%] day 28 ([1]; listed as CYC202) [%] | % Abs [4] [%]
1 | CC(=O)O[C@@]12CO[C@@H]1C[C@H](O)[C@@]1(C)C(=O)[C@H](O)C3=C(C)[C@@H](OC(=O)[C@H](O)[C@@H](NC(=O)OC(C)(C)C)c4ccccc4)C[C@@](O)([C@@H](OC(=O)c4ccccc4)[C@H]21)C3(C)C [docetaxel] | 9 | 27 | 12.2 | 10 | 27.3 | 0/10 | −4.2% | 21 | 40.7 |  | 
2 | CC[C@H](CO)Nc1nc(NCc2ccccc2)c2ncn(C(C)C)c2n1 [roscovitine, 6-benzylamino-2-[(R)-1-ethyl-2-hydroxyethylamino]-9-isopropylpurine] |  | 64 | 64.3 | 28 |  |  | +7.1% | 63 | 43.3 | 64.3 | 0
